± gives the standard deviation of the averaged measurements.
Legend:
Assay in all cases: level (log10 ratio to DMSO vehicle control); higher = higher biomarker level / cell amount than vehicle control
[1] = compound: O=S(=O)(O)CCC(F)(F)C(F)(F)C(F)(F)C(F)(F)C(F)(F)C(F)(F)F [6:2 Fluorotelomer sulfonic acid]; settings: in DMSO
Procedure: (§1)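 BioMAP Diversity Plus panel of 12 human primary cell co-culture systems (3C, 4H, LPS, SAg, BT, BF4T, BE3C, CASM3C, HDF3CGF, KF3CT, MyoF, Mphg). Compounds were added 1 h before stimulation and left for 24 h (MyoF 48 h; BT 72 h for soluble read-outs or 6 d for IgG). Biomarkers were read by ELISA, cytotoxicity by SRB, PBMC viability and proliferation by Alamar Blue. Each well value was divided by the mean of 8 DMSO control wells on the same plate and log10 transformed; duplicate blinded samples were tested at 4 concentrations.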

[2] = compound: C=C(C)C(=O)OCCC(F)(F)C(F)(F)C(F)(F)C(F)(F)C(F)(F)C(F)(F)F [6:2 Fluorotelomer methacrylate]; settings: in DMSO
Procedure: as §1

[3] = compound: NS(=O)(=O)C(F)(F)C(F)(F)C(F)(F)C(F)(F)C(F)(F)C(F)(F)F [Perfluorohexanesulfonamide]; settings: in DMSO
Procedure: as §1

[4] = compound: FC(F)(F)C(F)(F)C(F)(F)C(F)(F)C(F)(F)C(F)(F)C(F)(F)I [1-Iodopentadecafluoroheptane]; settings: in DMSO
Procedure: as §1

[5] = compound: C=CC(=O)OCC(F)(F)C(F)(F)C(F)(F)COC(=O)C=C [1H,1H,5H,5H-Perfluoro-1,5-pentanediol diacrylate]; settings: 6700 nM; in DMSO
Procedure: as §1

Octafluoroadipamide = compound: NC(=O)C(F)(F)C(F)(F)C(F)(F)C(F)(F)C(N)=O [Octafluoroadipamide]; settings: in DMSO
Procedure: as §1

Row | Test System | level (log10) ([1]; 6700 nM) | level (log10) ([1]; 20000 nM) | level (log10) ([1]; 60000 nM) | level (log10) ([2]; 6700 nM) | level (log10) ([2]; 20000 nM) | level (log10) ([2]; 60000 nM) | level (log10) ([3]; 6700 nM) | level (log10) ([3]; 20000 nM) | level (log10) ([3]; 60000 nM) | level (log10) ([4]; 6700 nM) | level (log10) ([4]; 20000 nM) | level (log10) [5] | level (log10) (Octafluoroadipamide; 6700 nM) | level (log10) (Octafluoroadipamide; 20000 nM) | level (log10) (Octafluoroadipamide; 60000 nM)
1 | BE3C:SRB | -0.005 ± 0.0099 | -0.001 ± 0.0028 | 0.0055 ± 0.011 | 0.0015 ± 0.0035 | 0.003 ± 0.0028 | 0.0025 ± 0.0021 | -0.0065 ± 0.00071 | -0.022 | -0.058 ± 0.0099 | 0.0095 ± 0.00071 | 0.0085 ± 0.0035 | -0.0035 ± 0.0021 | -0.0005 ± 0.0021 | -0.0055 ± 0.005 | 0.006 ± 0.011
2 | BE3C:uPA | -0.008 ± 0.0099 | -0.005 ± 0.0028 | 0.01 ± 0.0057 | 0.0055 ± 0.0064 | 0.0085 ± 0.0092 | 0.019 ± 0.021 | -0.0115 ± 0.032 | 0.0025 ± 0.037 | -0.0365 ± 0.037 | -0.0135 ± 0.0035 | -0.009 ± 0.0099 | -0.015 ± 0.0028 | -0.0155 ± 0.00071 | -0.0055 ± 0.0078 | 0.0005 ± 0.021
3 | CASM3C:CCL2/MCP-1 | -0.0125 ± 0.011 | -0.01 | 0.0225 ± 0.032 | -0.005 ± 0.0028 | -0.011 ± 0.0014 | -0.0015 ± 0.021 | -0.006 ± 0.0014 | 0.0015 ± 0.012 | 0.028 ± 0.017 | -0.01 ± 0.0042 | 0.005 ± 0.018 | 0 ± 0.0085 | -0.0095 ± 0.0078 | -0.0085 ± 0.0078 | 0.017 ± 0.02
4 | CASM3C:CD87/uPAR | 0.003 ± 0.035 | 0.0145 ± 0.019 | -0.0125 ± 0.012 | -0.014 ± 0.028 | -0.0285 ± 0.023 | -0.0355 ± 0.023 | -0.01 ± 0.0071 | -0.028 ± 0.0028 | -0.029 ± 0.033 | -0.019 ± 0.031 | -0.0195 ± 0.018 | -0.0095 ± 0.022 | -0.023 ± 0.051 | -0.0495 ± 0.077 | -0.057 ± 0.041
5 | CASM3C:CD106/VCAM-1 | -0.008 ± 0.011 | -0.0325 ± 0.022 | -0.0605 ± 0.026 | -0.0005 ± 0.011 | -0.005 ± 0.016 | -0.005 ± 0.0042 | -0.014 ± 0.016 | -0.0285 ± 0.005 | -0.0235 ± 0.0064 | -0.0125 ± 0.005 | -0.019 ± 0.034 | -0.119 ± 0.011 | -0.0525 ± 0.005 | -0.04 ± 0.018 | -0.0275 ± 0.033
6 | CASM3C:CD141/Thrombomodulin | -0.015 ± 0.037 | -0.0175 ± 0.063 | -0.033 ± 0.021 | 0.016 ± 0.071 | 0.021 ± 0.067 | 0.03 ± 0.081 | -0.022 ± 0.025 | -0.0305 ± 0.021 | 0.016 ± 0.014 | -0.0595 ± 0.021 | -0.0445 ± 0.021 | 0.081 ± 0.0042 | 0.0225 ± 0.0064 | 0.0095 ± 0.019 | 0.007 ± 0.02
7 | CASM3C:CXCL8/IL-8 | 0.007 ± 0.0042 | -0.016 ± 0.011 | 0.0185 ± 0.019 | 0.0185 ± 0.018 | 0.0165 ± 0.012 | 0.0205 ± 0.00071 | -0.0235 ± 0.0035 | -0.014 ± 0.014 | 0.001 ± 0.0085 | -0.0165 ± 0.016 | 0.001 ± 0.017 | -0.0125 ± 0.00071 | -0.007 ± 0.035 | 0.005 ± 0.0028 | -0.005 ± 0.031
8 | CASM3C:CXCL9/MIG | -0.0445 ± 0.0078 | -0.0315 ± 0.0035 | -0.015 ± 0.045 | 0.011 ± 0.016 | 0.0255 ± 0.012 | 0.041 ± 0.0099 | 0.003 ± 0.0042 | -0.0065 ± 0.005 | -0.003 ± 0.023 | -0.0165 ± 0.025 | 0.018 ± 0.018 | -0.229 ± 0.011 | 0.0115 ± 0.053 | -0.004 ± 0.014 | 0.0215 ± 0.037
9 | CASM3C:HLA-DR | 0.0245 ± 0.005 | -0.0115 ± 0.0035 | -0.001 ± 0.0085 | -0.008 ± 0.042 | -0.0015 ± 0.015 | 0.0155 ± 0.011 | 0.002 ± 0.03 | 0 ± 0.0071 | 0.005 ± 0.0042 | -0.0255 ± 0.023 | 0.008 ± 0.023 | -0.0345 ± 0.018 | -0.0105 ± 0.022 | -0.019 ± 0.0057 | 0.01 ± 0.018
10 | CASM3C:IL-6 | -0.003 ± 0.011 | -0.014 ± 0.0014 | 0.006 ± 0.017 | -0.0405 ± 0.035 | -0.046 ± 0.0042 | 0.005 ± 0.0028 | -0.0145 ± 0.013 | -0.054 ± 0.0099 | -0.0495 ± 0.044 | -0.0425 ± 0.026 | -0.0035 ± 0.053 | -0.0735 ± 0.00071 | -0.0145 ± 0.0064 | -0.0185 ± 0.0035 | 0 ± 0.051
11 | CASM3C:LDLR | 0.009 ± 0.0057 | -0.001 ± 0.018 | 0.011 ± 0.04 | -0.0185 ± 0.026 | -0.001 ± 0.025 | -0.016 ± 0.0099 | -0.003 ± 0.014 | -0.0105 ± 0.005 | -0.04 ± 0.011 | -0.002 ± 0.013 | -0.014 | -0.004 ± 0.0014 | -0.0045 ± 0.0064 | -0.005 ± 0.016 | 0.007 ± 0.0085
12 | CASM3C:M-CSF | -0.011 ± 0.044 | -0.002 ± 0.0085 | 0.002 ± 0.037 | -0.004 ± 0.011 | 0.002 ± 0.0014 | 0.024 ± 0.021 | 0.009 ± 0.035 | 0.0295 ± 0.012 | 0.119 ± 0.0035 | -0.0285 ± 0.019 | 0.0225 ± 0.052 | -0.056 ± 0.021 | -0.0095 ± 0.0078 | -0.01 ± 0.0085 | -0.0065 ± 0.0092
13 | CASM3C:PAI-I | -0.001 ± 0.023 | -0.0025 ± 0.015 | 0 ± 0.0099 | -0.01 ± 0.013 | -0.0055 ± 0.0021 | 0.007 ± 0.013 | -0.0045 ± 0.011 | -0.008 ± 0.0042 | 0.004 ± 0.0071 | -0.013 ± 0.011 | 0.0075 ± 0.011 | 0.002 ± 0.0042 | 0.0005 ± 0.005 | -0.0085 ± 0.012 | 0.0045 ± 0.0092
14 | CASM3C:SRB | -0.004 ± 0.0028 | 0.0025 ± 0.0021 | 0.001 ± 0.0085 | 0.001 ± 0.0057 | -0.0035 ± 0.0021 | 0.002 ± 0.0042 | 0.004 ± 0.013 | 0.006 ± 0.013 | -0.0035 ± 0.0078 | -0.0025 ± 0.0092 | 0.007 | -0.0025 ± 0.0021 | 0.0075 ± 0.013 | 0.002 ± 0.013 | -0.005 ± 0.0042
15 | CASM3C:Serum Amyloid A | 0.019 ± 0.014 | 0.021 ± 0.03 | 0.017 ± 0.031 | -0.032 ± 0.023 | -0.051 ± 0.02 | -0.0425 ± 0.023 | -0.0055 ± 0.039 | 0.012 ± 0.018 | 0.0625 ± 0.018 | -0.035 | 0.008 ± 0.024 | -0.038 ± 0.0057 | 0.012 ± 0.014 | 0.0085 ± 0.0092 | 0.0185 ± 0.028
16 | HDF3CGF:CCL2/MCP-1 | 0.0075 ± 0.019 | 0.0085 ± 0.021 | 0.008 ± 0.014 | -0.0445 ± 0.0092 | -0.0295 ± 0.005 | -0.048 ± 0.0028 | 0.0185 ± 0.016 | 0.047 ± 0.018 | 0.091 ± 0.014 | -0.0205 ± 0.025 | -0.0335 ± 0.0035 | -1.14 ± 0.03 | 0.003 | -0.019 ± 0.028 | -0.0115 ± 0.005
17 | HDF3CGF:CD54/ICAM-1 | -0.0085 ± 0.011 | -0.007 ± 0.011 | -0.029 ± 0.014 | -0.011 ± 0.0042 | 0.0035 ± 0.012 | 0.005 ± 0.0014 | -0.005 ± 0.0028 | -0.0155 ± 0.012 | -0.0225 ± 0.005 | -0.0025 ± 0.0078 | -0.0075 ± 0.0078 | -0.9415 ± 0.0078 | 0.011 ± 0.027 | 0.043 ± 0.0099 | 0.055 ± 0.073
18 | HDF3CGF:CD106/VCAM-1 | 0.034 ± 0.11 | 0.034 ± 0.093 | 0.0135 ± 0.064 | -0.0005 ± 0.018 | -0.0085 ± 0.0064 | -0.0395 ± 0.03 | -0.0505 ± 0.059 | -0.034 ± 0.042 | -0.205 ± 0.0092 | -0.0165 ± 0.021 | -0.046 ± 0.041 | -0.512 ± 0.033 | -0.0005 ± 0.012 | -0.0165 ± 0.035 | 0.01 ± 0.0099
19 | HDF3CGF:CXCL10/IP-10 | -0.0075 ± 0.018 | -0.046 ± 0.021 | -0.0325 ± 0.042 | -0.0075 ± 0.016 | -0.019 ± 0.021 | -0.0225 ± 0.026 | -0.02 ± 0.037 | -0.059 ± 0.037 | -0.185 ± 0.069 | 0.0025 ± 0.0021 | -0.026 ± 0.0071 | -0.821 ± 0.0057 | 0.011 ± 0.0028 | -0.0045 ± 0.016 | 0.031 ± 0.03
